Laboratory results: the supplement of paper PMC10307832

What was measured:
Test in all cases: relative viability (nuclei count vs DMSO), 5 days (fraction); higher = more cells survive
Vorinostat + Dasatinib = compound: O=C(CCCCCCC(=O)Nc1ccccc1)NO [Vorinostat] + Cc1nc(Nc2ncc(C(=O)Nc3c(C)cccc3Cl)s2)cc(N2CCN(CCO)CC2)n1 [Dasatinib] (partner 0.075 µM)
In short: (§1)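 Relative viability is defined as nuclei in treated wells over nuclei in vehicle wells. Duplicate plates were run and medians reported. Lung cancer cell lines in 1536-well plates were dosed by pin tool one day after seeding, with one drug or with a fixed anchor-drug dose plus five library-drug doses (not always all listed) in √10 steps, and nuclei were counted after 5 days.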

Vorinostat + Navitoclax = compound: O=C(CCCCCCC(=O)Nc1ccccc1)NO [Vorinostat] + CC1(C)CCC(c2ccc(Cl)cc2)=C(CN2CCN(c3ccc(C(=O)NS(=O)(=O)c4ccc(N[C@H](CCN5CCOCC5)CSc5ccccc5)c(S(=O)(=O)C(F)(F)F)c4)cc3)CC2)C1 [Navitoclax] (partner 0.5 µM)
In short: as §1

Vorinostat + Phenformin = compound: O=C(CCCCCCC(=O)Nc1ccccc1)NO [Vorinostat] + N=C(N)NC(=N)NCCc1ccccc1 [Phenformin] (partner 250 µM)
In short: as §1

Vorinostat + Olaparib = compound: O=C(CCCCCCC(=O)Nc1ccccc1)NO [Vorinostat] + O=C(c1cc(Cc2n[nH]c(=O)c3ccccc23)ccc1F)N1CCN(C(=O)C2CC2)CC1 [Olaparib] (partner 8 µM)
In short: as §1

Vorinostat + Crizotinib = compound: O=C(CCCCCCC(=O)Nc1ccccc1)NO [Vorinostat] + C[C@@H](Oc1cc(-c2cnn(C3CCNCC3)c2)cnc1N)c1c(Cl)ccc(F)c1Cl [Crizotinib] (partner 1 µM)
In short: as §1

Cell Line | relative viability (Vorinostat + Dasatinib; first compound 0.253 µM) | relative viability (Vorinostat + Dasatinib; first compound 0.8 µM) | relative viability (Vorinostat + Dasatinib; first compound 2.53 µM) | relative viability (Vorinostat + Dasatinib; first compound 8 µM) | relative viability (Vorinostat + Navitoclax; first compound 0.253 µM) | relative viability (Vorinostat + Navitoclax; first compound 0.8 µM) | relative viability (Vorinostat + Navitoclax; first compound 2.53 µM) | relative viability (Vorinostat + Navitoclax; first compound 8 µM) | relative viability (Vorinostat + Phenformin; first compound 0.253 µM) | relative viability (Vorinostat + Phenformin; first compound 0.8 µM) | relative viability (Vorinostat + Phenformin; first compound 2.53 µM) | relative viability (Vorinostat + Phenformin; first compound 8 µM) | relative viability (Vorinostat + Olaparib; first compound 0.253 µM) | relative viability (Vorinostat + Olaparib; first compound 0.8 µM) | relative viability (Vorinostat + Olaparib; first compound 2.53 µM) | relative viability (Vorinostat + Olaparib; first compound 8 µM) | relative viability (Vorinostat + Crizotinib; first compound 0.253 µM) | relative viability (Vorinostat + Crizotinib; first compound 0.8 µM) | relative viability (Vorinostat + Crizotinib; first compound 2.53 µM) | relative viability (Vorinostat + Crizotinib; first compound 8 µM)
NCI-H1734 | 0.608 | 0.624 | 0.39 | 0.111 | 0.943 | 0.76 | 0.269 | 0.0823 | 0.501 | 0.388 | 0.297 | 0.0963 | 0.739 | 0.66 | 0.31 | 0.0928 | 0.779 | 0.683 | 0.214 | 0.127
NCI-H838 | 0.378 | 0.442 | 0.368 | 0.186 | 1.34 | 1.15 | 0.395 | 0.195 | 0.95 | 0.562 | 0.317 | 0.139 | 0.87 | 0.785 | 0.222 | 0.153 | 0.986 | 0.76 | 0.241 | 0.105
NCI-H2023 | 0.872 | 0.49 | 0.134 | 0.061 | 1.08 | 0.91 | 0.449 | 0.0939 | 0.444 | 0.442 | 0.192 | 0.0722 | 0.403 | 0.296 | 0.113 | 0.0691 | 0.716 | 0.525 | 0.188 | 0.0669
LOU-NH91 | 0.661 | 0.577 | 0.544 | 0.361 | 0.791 | 0.568 | 0.313 | 0.233 | 0.774 | 0.663 | 0.628 | 0.348 | 0.959 | 0.832 | 0.587 | 0.404 | 0.755 | 0.746 | 0.599 | 0.362
EKVX | 0.535 | 0.528 | 0.236 | 0.179 | 0.955 | 1.13 | 0.588 | 0.143 | 0.228 | 0.238 | 0.225 | 0.134 | 1.02 | 0.833 | 0.335 | 0.15 | 0.958 | 0.891 | 0.428 | 0.152
NCI-H2405 | 0.237 | 0.17 | 0.117 | 0.0585 | 1.13 | 0.771 | 0.0779 | 0.0557 | 0.495 | 0.404 | 0.279 | 0.0401 | 1.02 | 0.888 | 0.313 | 0.0962 | 0.917 | 0.88 | 0.415 | 0.0921
NCI-H1755 | 0.447 | 0.469 | 0.254 | 0.139 | 1.01 | 0.98 | 0.369 | 0.215 | 0.646 | 0.579 | 0.413 | 0.204 | 0.953 | 0.86 | 0.307 | 0.205 | 0.942 | 0.883 | 0.233 | 0.154
PC-3 [JPC-3] | 1 | 1 | 0.593 | 0.227 | 0.655 | 0.676 | 0.398 | 0.247 | 0.471 | 0.465 | 0.436 | 0.279 | 1.13 | 1.05 | 0.379 | 0.326 | 0.955 | 0.97 | 0.41 | 0.228
NCI-H647 | 0.18 | 0.233 | 0.0551 | 0.0337 | 1.14 | 0.759 | 0.149 | 0.0271 | 0.594 | 0.208 | 0.0803 | 0.0343 | 0.694 | 0.201 | 0.0618 | 0.0259 | 1.15 | 0.591 | 0.178 | 0.0502
NCI-H520 | 0.219 | 0.206 | 0.179 | 0.17 | 1.17 | 0.845 | 0.256 | 0.162 | 0.717 | 0.482 | 0.374 | 0.164 | 0.299 | 0.264 | 0.184 | 0.116 | 0.796 | 0.482 | 0.133 | 0.108
NCI-H322M | 0.286 | 0.268 | 0.255 | 0.264 | 1.33 | 1.32 | 0.836 | 0.249 | 0.94 | 0.761 | 0.452 | 0.284 | 0.9 | 0.873 | 0.498 | 0.386 | 0.888 | 0.758 | 0.447 | 0.194
COR-L 105 | 0.377 | 0.394 | 0.259 | 0.196 | 0.741 | 0.58 | 0.257 | 0.234 | 0.609 | 0.54 | 0.199 | 0.234 | 0.727 | 0.821 | 0.589 | 0.266 | 0.65 | 0.383 | 0.221 | 0.199
NCI-H1355 | 0.825 | 0.503 | 0.298 | 0.169 | 1.05 | 0.876 | 0.506 | 0.166 | 0.471 | 0.411 | 0.333 | 0.179 | 0.797 | 0.565 | 0.211 | 0.128 | 1.19 | 0.963 | 0.398 | 0.138
NCI-H2228 | 0.39 | 0.323 | 0.127 | 0.0817 | 0.953 | 0.809 | 0.473 | 0.132 | 0.388 | 0.27 | 0.136 | 0.102 | 0.501 | 0.499 | 0.223 | 0.124 | 0.593 | 0.502 | 0.246 | 0.168
